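Growth conditions: 96-well plates. Treatment: test compound, 48 hours, 5 concentrations. Analysis: linear interpolation between bracketing concentrations; unreached endpoints set to highest concentration. Here, GI50 denotes the concentration required for 50% inhibition of growth.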 The source made the active and inactive calls. No stated cut-off is given here; in the data, active = GI50 up to about 1.1 µM and inactive = higher.
Legend:
Test in all cases: NCI anticancer screen, dose series, 48 h
786-0 = tested on: 786-0
A498 = tested on: A498
A549 = tested on: A549
ACHN = tested on: ACHN
BT-549 = tested on: BT-549
CAKI-1 = tested on: CAKI-1
CCRF-CEM = tested on: CCRF-CEM
COLO 205 = tested on: COLO 205
DU-145 = tested on: DU-145
EKVX = tested on: EKVX
HCC 2998 = tested on: HCC 2998
HCT-116 = tested on: HCT-116
HCT-15 = tested on: HCT-15
HL-60 = tested on: HL-60
HOP-62 = tested on: HOP-62
HT-29 = tested on: HT-29
Hs-578T = tested on: Hs-578T
IGROV-1 = tested on: IGROV-1
K562 = tested on: K562
KM12 = tested on: KM12
LOX IMVI = tested on: LOX IMVI
MCF7 = tested on: MCF7
MDA-MB-231 = tested on: MDA-MB-231
MDA-MB-435 = tested on: MDA-MB-435
MDA-N = tested on: MDA-N
Malme-3M = tested on: Malme-3M
NCI-H226 = tested on: NCI-H226
NCI-H23 = tested on: NCI-H23
NCI-H460 = tested on: NCI-H460
NCI-H522 = tested on: NCI-H522
NCI/ADR-RES = tested on: NCI/ADR-RES
OVCAR-3 = tested on: OVCAR-3
OVCAR-5 = tested on: OVCAR-5
OVCAR-8 = tested on: OVCAR-8
PC-3 = tested on: PC-3
RPMI-8226 = tested on: RPMI-8226
RXF 393 = tested on: RXF 393
SF-268 = tested on: SF-268
SF-295 = tested on: SF-295
SF-539 = tested on: SF-539
SK-MEL-28 = tested on: SK-MEL-28
SK-MEL-5 = tested on: SK-MEL-5
SN12C = tested on: SN12C
SNB-19 = tested on: SNB-19
SR = tested on: SR
SW-620 = tested on: SW-620
TK-10 = tested on: TK-10
U-251 = tested on: U-251
UACC-257 = tested on: UACC-257
UO-31 = tested on: UO-31
HOP-92 = tested on: HOP-92
M14 = tested on: M14
MOLT-4 = tested on: MOLT-4
OVCAR-4 = tested on: OVCAR-4
SNB-75 = tested on: SNB-75
UACC-62 = tested on: UACC-62
SK-MEL-2 = tested on: SK-MEL-2

Measured: GI50

O=C(O)C(Cc1ccc(O)cn1)NC(=O)C(F)(F)F (centres undefined)
inactive: 786-0 > 100 µM | A498 > 100 µM | A549 > 100 µM | ACHN > 100 µM | BT-549 > 100 µM | CAKI-1 > 100 µM | CCRF-CEM > 100 µM | COLO 205 > 100 µM | DU-145 > 100 µM | EKVX > 100 µM | HCC 2998 > 100 µM | HCT-116 > 100 µM | HL-60 > 100 µM | HOP-62 > 100 µM | HT-29 > 100 µM | Hs-578T > 100 µM | IGROV-1 > 100 µM | K562 > 100 µM | KM12 > 100 µM | LOX IMVI > 100 µM | MCF7 > 100 µM | MDA-MB-231 > 100 µM | MDA-MB-435 > 100 µM | MDA-N > 100 µM | Malme-3M > 100 µM | NCI-H226 > 100 µM | NCI-H23 > 100 µM | NCI-H460 > 100 µM | NCI-H522 > 100 µM | NCI/ADR-RES > 100 µM | OVCAR-3 > 100 µM | OVCAR-5 > 100 µM | OVCAR-8 > 100 µM | PC-3 > 100 µM | RPMI-8226 > 100 µM | RXF 393 > 100 µM | SF-268 > 100 µM | SF-295 > 100 µM | SF-539 > 100 µM | SK-MEL-28 > 100 µM | SK-MEL-5 > 100 µM | SN12C > 100 µM | SNB-19 > 100 µM | SR > 100 µM | SW-620 > 100 µM | TK-10 > 100 µM | U-251 > 100 µM | UACC-257 > 100 µM | UO-31 > 100 µM
> 100 µM: HCT-15

COc1ccc(-c2cc(O)c3nc4ccccc4n3c2)cc1
> 100 µM: HCT-15
inactive: 786-0 > 100 µM | A498 > 100 µM | A549 > 100 µM | BT-549 > 100 µM | CAKI-1 > 100 µM | CCRF-CEM > 100 µM | COLO 205 > 100 µM | DU-145 > 100 µM | EKVX > 100 µM | HCT-116 > 100 µM | HL-60 > 100 µM | HOP-62 > 100 µM | HOP-92 > 100 µM | HT-29 > 100 µM | Hs-578T 85.7 µM | IGROV-1 71 µM | K562 > 100 µM | KM12 > 100 µM | LOX IMVI > 100 µM | M14 > 100 µM | MCF7 > 100 µM | MDA-MB-231 > 100 µM | MDA-MB-435 > 100 µM | MDA-N > 100 µM | MOLT-4 > 100 µM | Malme-3M > 100 µM | NCI-H226 > 100 µM | NCI-H23 > 100 µM | NCI-H460 > 100 µM | NCI-H522 > 100 µM | NCI/ADR-RES > 100 µM | OVCAR-3 > 100 µM | OVCAR-4 > 100 µM | OVCAR-8 > 100 µM | PC-3 > 100 µM | RPMI-8226 > 100 µM | RXF 393 > 100 µM | SF-268 > 100 µM | SF-295 > 100 µM | SF-539 > 100 µM | SK-MEL-28 > 100 µM | SN12C > 100 µM | SNB-19 > 100 µM | SNB-75 > 100 µM | SR > 100 µM | SW-620 > 100 µM | TK-10 > 100 µM | U-251 > 100 µM | UACC-257 > 100 µM | UACC-62 > 100 µM | UO-31 > 100 µM

O=C1NC(=S)N/C1=C/c1c(-c2ccccc2)[nH]c2ccccc12
14.7 µM: HCT-15
inactive: 786-0 14 µM | A498 11.4 µM | ACHN 17.4 µM | BT-549 12.6 µM | CAKI-1 18.2 µM | COLO 205 17.9 µM | EKVX 14.5 µM | HCC 2998 21.1 µM | HCT-116 14.3 µM | HL-60 7.31 µM | HOP-62 15.5 µM | HT-29 16.3 µM | Hs-578T 16.6 µM | IGROV-1 13.8 µM | K562 10.1 µM | KM12 14.6 µM | LOX IMVI 10.9 µM | MCF7 15.2 µM | MDA-MB-231 13.7 µM | MDA-MB-435 13.7 µM | MDA-N 14.9 µM | MOLT-4 12.4 µM | Malme-3M 13.5 µM | NCI-H226 16.3 µM | NCI-H23 14.1 µM | NCI-H460 12.9 µM | NCI-H522 13.2 µM | NCI/ADR-RES 18.6 µM | OVCAR-3 16.1 µM | OVCAR-4 16.1 µM | OVCAR-5 17.9 µM | OVCAR-8 14.4 µM | PC-3 12.9 µM | RPMI-8226 8.73 µM | RXF 393 15.3 µM | SF-268 25.7 µM | SF-295 12.8 µM | SF-539 17.4 µM | SK-MEL-28 16.6 µM | SK-MEL-2 13.2 µM | SK-MEL-5 13 µM | SN12C 18.5 µM | SNB-19 16.5 µM | SNB-75 15.3 µM | SR 6.32 µM | SW-620 17.1 µM | TK-10 15.8 µM | U-251 15.7 µM | UACC-257 15.6 µM | UACC-62 11.7 µM | UO-31 9.23 µM
